The results in this text go back to patent US4440904A, “Nonapeptide anti-secretory agents” (American Home Products Corporation, priority 1983, dated 1984).

The subject of assay [1] is growth hormone (GH). The assay can be described thus: Growth hormone suppression in arginine-stimulated, Nembutal-anesthetized rats (GH by radioimmunoassay). Format: in vivo, rat. The settings on record: for GH: albino male rats, time 15 minutes, arginine stimulation, saline control 90 ± 14, *p <0.01. As for the experimental part:
The product of the preceding example illustrates the activity of the compounds of this invention for growth hormone suppression in the following standard procedure:
Albino male rats are administered Nembutal intraperitoneally at a dose of 50 milligrams per kilogram. Fifteen minutes later a subcutaneous injection of the compound of Example 2 or physiological saline (control) is administered. Ten minutes later 0.5 milliliters of arginine (300 milligrams per milliliter, pH 7.2) is injected into the heart. Five minutes after receipt of the arginine the rats are decapitated and blood is collected into trasylol-EDTA. An appropriate aliquot is assayed for growth hormone (GH) by radioimmunoassay.

The test system of assay [2] is total acid output. The assay can be described thus: Gastric anti-secretory activity in pylorus-ligated rats. Format: in vivo, rat. The settings on record: male Sprague-Dawley rats, pyloric ligation, 2 milligram per kilogram subcutaneous, four-hour test period. As for the experimental part:
Male Charles River rats of Sprague-Dawley strain and 190 to 240 grams body weight are food deprived for 24 hours with water ad libitum until the test. Groups of ten rats each are assigned to either control or drug treatment. Pyloric ligation was performed under ether anesthesia through a midline laparotomy, and either control vehicle (0.25 methylcellulose) or drug in control vehicle was administered subcutaneously. The rats are sacrificed by CO2 asphyxiation four hours after pyloric ligation. The stomachs are removed and the gastric contents emptied into graduated centrifuge tubes. The gastric samples are centrifuged for 20 minutes and those obviously contaminated by food, blood or feces are discarded. The volume of gastric fluid is recorded and the acid concentration of 1.0 milliliter sample aliquots is measured by electrometric titration to pH 7.0 with 0.1 N NaOH. The calculated product of gastric volume (ml/4 hr) and acid concentration (mEq/L) estimates the total acid output (TAO, mEq/4 hr) over the four-hour test period.

Bridge positions count the residues as written; N and C are the ends. Square brackets hold non-standard residues; d marks the D form. Peptide text beside a SMILES is read from it.

On to `C[C@@H](O)[C@@H]1NC(=O)[C@H](CCCCN)NC(=O)[C@@H](Cc2c[nH]c3ccccc23)NC(=O)[C@H](Cc2ccccc2)NC(=O)[C@@H](NC(=O)[C@H](Cc2ccc(O)cc2)NC(=O)[C@@H](N)Cc2c[nH]cn2)CSSC[C@@H](C(=O)N[C@@H](Cc2ccccc2)C(=O)O)NC1=O` [Example 2, L-Histidyl-L-tyrosyl-L-cysteinyl-L-phenylalanyl-D-tryptophyl-L-lysyl-L-threonyl-L-cysteinyl-L-phenylalanine cyclic (3-8) disulfide] (H-HYCF[dW]KTCF-OH; disulfide 3-8), for which the GH worked out at 31 ± 10 ng/mL in assay [1] (dose 200 μg/kg subcutaneous) and 41 ± 8 ng/mL in assay [1] (dose 1,000 μg/kg subcutaneous). Further, in assay [1] (rats, subcutaneous), the “growth hormone suppression potency compared with somatostatin” value is “substantially equipotent with somatostatin”. Also, the “decrease of total acid output” value in assay [2] was 73%.
Take `C[C@H](N)C(=O)NCC(=O)N[C@H]1CSSC[C@@H](C(=O)O)NC(=O)[C@H](CO)NC(=O)[C@H]([C@@H](C)O)NC(=O)[C@H](Cc2ccccc2)NC(=O)[C@H]([C@@H](C)O)NC(=O)[C@H](CCCCN)NC(=O)[C@H](Cc2c[nH]c3ccccc23)NC(=O)[C@H](Cc2ccccc2)NC(=O)[C@H](Cc2ccccc2)NC(=O)[C@H](CC(N)=O)NC(=O)[C@H](CCCCN)NC1=O` [Somatostatin, reference compound]: the GH in assay [1] (dose 200 μg/kg subcutaneous) is 34 ± 3 ng/mL.
